From PMC6940354, “Comparative Assessment of the New PDE7 Inhibitor – GRMS-55 and Lisofylline in Animal Models of Immune-Related Disorders: A PK/PD Modeling Approach” (Pharmaceutical Research, 2020)
Several values for one entry are separate records, joined by “and”; a condition that tells them apart may be missing. Equal values may be shown once. Read-outs that look alike come from different tables or passages of the source.

Legend:
[1] = biological target: hrPDE10A (Homo sapiens, UniProt Q9Y233); test: PDE-Glo Phosphodiesterase Assay, hrPDE10A
Sequence of hrPDE10A (Q9Y233 whole entry): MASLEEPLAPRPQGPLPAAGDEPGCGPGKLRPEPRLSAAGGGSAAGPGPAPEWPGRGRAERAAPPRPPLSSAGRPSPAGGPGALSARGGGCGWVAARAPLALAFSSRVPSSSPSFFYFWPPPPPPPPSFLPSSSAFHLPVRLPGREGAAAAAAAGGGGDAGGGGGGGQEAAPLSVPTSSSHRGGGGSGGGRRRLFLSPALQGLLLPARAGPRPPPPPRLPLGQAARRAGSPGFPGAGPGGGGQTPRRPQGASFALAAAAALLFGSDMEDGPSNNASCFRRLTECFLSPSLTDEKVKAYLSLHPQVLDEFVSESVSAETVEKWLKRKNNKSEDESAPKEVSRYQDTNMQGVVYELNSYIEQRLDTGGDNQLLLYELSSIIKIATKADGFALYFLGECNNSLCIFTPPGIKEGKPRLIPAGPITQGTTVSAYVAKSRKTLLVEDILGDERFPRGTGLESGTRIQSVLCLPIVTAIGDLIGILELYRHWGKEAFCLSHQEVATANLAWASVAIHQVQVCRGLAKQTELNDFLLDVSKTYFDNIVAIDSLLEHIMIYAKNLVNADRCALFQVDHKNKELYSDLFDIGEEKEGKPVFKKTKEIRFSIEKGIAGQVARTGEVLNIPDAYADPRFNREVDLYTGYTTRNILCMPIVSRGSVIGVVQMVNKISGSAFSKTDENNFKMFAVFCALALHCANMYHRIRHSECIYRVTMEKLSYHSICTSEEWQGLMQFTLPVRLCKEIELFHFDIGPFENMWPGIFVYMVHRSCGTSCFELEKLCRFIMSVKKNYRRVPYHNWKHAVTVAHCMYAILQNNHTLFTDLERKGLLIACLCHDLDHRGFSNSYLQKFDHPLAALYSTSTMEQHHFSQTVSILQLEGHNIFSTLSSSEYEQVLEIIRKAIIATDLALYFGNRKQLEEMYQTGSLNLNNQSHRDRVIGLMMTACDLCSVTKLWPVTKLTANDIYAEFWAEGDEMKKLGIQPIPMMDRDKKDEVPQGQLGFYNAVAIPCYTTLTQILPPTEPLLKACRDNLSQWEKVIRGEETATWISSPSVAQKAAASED
Method: (§1) Inhibitory activity of the investigated and reference compounds against various subtypes of PDEs was analyzed using the PDE-Glo Phosphodiesterase Assay following the manufacturer’s instruction (Promega Corp., USA). […] The values of IC50, Imax, and γ parameters of the investigated and reference compounds were estimated using non-linear regression in Phoenix WinNonlin v. […] Each sample was performed in quadruplicate and the relative activity of each sample was calculated as E=sample activity/control activity·100% .
(§2) One and a half μL aliquots of PDE-Glo reaction buffer containing appropriate amounts of human recombinant PDE (hrPDE) 1B, 2A, 3A, 4B, 4D, 5A, 7A, or 10A (SignalChem, Richmond, Canada) were placed into separate wells of a 384-well plate (Thermo Scientific, USA). The investigated compounds were initially dissolved in DMSO and then a serial dilution with DMSO was performed. Each dilution was mixed with PDE-Glo reaction buffer at a ratio of 1:5 (v/v). Then, 1 μL of the solution containing a PDE inhibitor and 2.5 μL of the substrate solution were added to each well. cGMP was used as a substrate in the case of hrPDE2A and hrPDE5A, while cAMP for other types of hrPDEs. The samples were incubated for 10 min at 30°C. […] The luminescence of each sample was measured by a microplate reader POLARstar Omega (BMG LABTECH, Germany).

[2] = Pharmacokinetics in female Lewis rats; format: in vivo, rat; conditions: for fraction of the dose absorbed (F): calculated from Eq. 4
Method: The same vehicles as these in pharmacodynamic studies for each compound and route of administration were used. Rats were implanted with catheters into the jugular vein and after a two-day period they were administered with the investigated compounds by the listed above routes of administration. […] Samples were subsequently centrifuged at 3000 × g for 10 min. Plasma was stored at −80°C until analysis.
A detailed description of these methods has been provided in the supplementary materials.
Firstly, the concentration-time data collected for each individual compound from one of the investigated rat strains (Wistar or Lewis) were subjected to a non-compartmental analysis (NCA). Subsequently, pharmacokinetic models were developed for each investigated compound and strain of rat. One- and two- compartment models with linear or non-linear elimination were tested. […] The final models were chosen based on the goodness-of-fit criteria, such as Akaike Information Criterion (AIC), Schwarz Bayesian Criterion (SBC), weighted sum of squared residuals (WSSR), a visual inspection of fitting, and precision of estimated parameters expressed as coefficients of variation % (CVs%). NCA analysis was performed in Phoenix WinNonlin v. 7.0 (Pharsight Corp., a Certara Company, Princeton, New Jersey). Pharmacokinetic model parameters were estimated in ADAPT 5 software (BMSR, Los Angeles, CA) using the weighted least squares algorithm. Fraction of the dose absorbed (F) following an extravascular (EV) administration was calculated according to the Eq. 4:4 F=AUC0−tEV·DIV/AUC0−tIV·DEV where AUC0-t is the area under concentration versus time curve from 0 to the last measured point and D is dose.
The route of (±)-LSF administration was selected based on the results of our recent study, where SC route of administration was recognized as the most preferential for this compound ([20]). The concentration-time data for each of the investigated compounds were simultaneously fitted to obtain a single set of pharmacokinetic parameters.
The remaining symbols and parameters have been explained and defined in Fig. 2 and Table II.
Then, the samples were extracted with 1 mL of dichloromethane for 20 min using a VXR Vibrax shaker (IKA, Germany). Subsequently, all tubes were centrifuged (10 000×g, 8 min) using EBA 12 R centrifuge (Hettich, Germany). Organic layers were collected and transferred to clear propylene tubes and evaporated in water bath under a gentle stream of nitrogen at 37°C. Dry residues were then dissolved in 100 μL of mobile phase and subjected to the HPLC analysis. The HPLC system (LaChrom Elite, Merck-Hitachi, Germany) consisted of an L-2130 pump, an L-2200 autosampler, and an L-2420 UV-VIS detector. EZChrome Elite v. 3.2 (Merck-Hitachi, Germany) computer program was used for data acquisition and integration. The separation of GRMS-55 was performed using a LiChrospher 100 RP-18 (250×4 mm) column with a particle size of 5 μm protected with a LiChroCART (4×4 mm, RP-18) guard column (Merck, Germany). […] The separation of both investigated compounds was performed at ambient temperature. […] In turn, the retention time of GRMS-55 was 9.2 min. and that of its IS was 5.3 min.

[3] = biological target: T1, hrPDE2A (Homo sapiens, UniProt O00408); test: PDE-Glo Phosphodiesterase Assay, hrPDE2A; format: biochemical; conditions: cGMP substrate, read-out: IC50 PDE2A, Estimate (CV%)
T1 construct: purchased SignalChem, Richmond, Canada
T1 sequence (O00408 whole entry): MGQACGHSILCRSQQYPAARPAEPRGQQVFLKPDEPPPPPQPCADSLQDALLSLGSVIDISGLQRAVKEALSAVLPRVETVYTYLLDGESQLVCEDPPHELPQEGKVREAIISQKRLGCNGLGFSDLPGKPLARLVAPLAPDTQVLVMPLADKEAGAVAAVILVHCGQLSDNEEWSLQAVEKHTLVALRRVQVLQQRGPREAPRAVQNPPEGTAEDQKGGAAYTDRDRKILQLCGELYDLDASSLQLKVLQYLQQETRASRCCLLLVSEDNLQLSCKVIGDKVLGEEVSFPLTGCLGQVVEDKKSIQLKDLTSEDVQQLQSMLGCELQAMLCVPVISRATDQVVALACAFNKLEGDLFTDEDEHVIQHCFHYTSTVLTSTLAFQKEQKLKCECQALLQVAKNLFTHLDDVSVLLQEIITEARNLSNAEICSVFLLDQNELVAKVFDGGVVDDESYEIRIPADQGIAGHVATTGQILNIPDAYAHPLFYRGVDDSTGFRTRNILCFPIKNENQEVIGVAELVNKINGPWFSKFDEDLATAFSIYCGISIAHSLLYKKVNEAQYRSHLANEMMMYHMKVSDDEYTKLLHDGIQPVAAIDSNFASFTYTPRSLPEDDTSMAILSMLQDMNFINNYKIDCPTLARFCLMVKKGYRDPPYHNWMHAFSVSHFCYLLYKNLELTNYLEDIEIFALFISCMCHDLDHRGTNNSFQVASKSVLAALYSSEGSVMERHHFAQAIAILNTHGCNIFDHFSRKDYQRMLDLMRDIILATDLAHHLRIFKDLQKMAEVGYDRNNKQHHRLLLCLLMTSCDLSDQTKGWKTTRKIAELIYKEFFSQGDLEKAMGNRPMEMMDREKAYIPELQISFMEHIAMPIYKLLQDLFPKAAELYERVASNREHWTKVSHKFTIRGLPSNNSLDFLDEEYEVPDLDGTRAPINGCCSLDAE
Method: as §1, §2

[4] = biological target: T2, hrPDE4B (Homo sapiens, UniProt Q07343); test: PDE-Glo Phosphodiesterase Assay, hrPDE4B; format: biochemical; conditions: for hrPDE4B inhibitory activity, times weaker than rolipram: ratio to the reference compound rolipram
T2 construct: purchased SignalChem, Richmond, Canada
T2 sequence (Q07343 whole entry): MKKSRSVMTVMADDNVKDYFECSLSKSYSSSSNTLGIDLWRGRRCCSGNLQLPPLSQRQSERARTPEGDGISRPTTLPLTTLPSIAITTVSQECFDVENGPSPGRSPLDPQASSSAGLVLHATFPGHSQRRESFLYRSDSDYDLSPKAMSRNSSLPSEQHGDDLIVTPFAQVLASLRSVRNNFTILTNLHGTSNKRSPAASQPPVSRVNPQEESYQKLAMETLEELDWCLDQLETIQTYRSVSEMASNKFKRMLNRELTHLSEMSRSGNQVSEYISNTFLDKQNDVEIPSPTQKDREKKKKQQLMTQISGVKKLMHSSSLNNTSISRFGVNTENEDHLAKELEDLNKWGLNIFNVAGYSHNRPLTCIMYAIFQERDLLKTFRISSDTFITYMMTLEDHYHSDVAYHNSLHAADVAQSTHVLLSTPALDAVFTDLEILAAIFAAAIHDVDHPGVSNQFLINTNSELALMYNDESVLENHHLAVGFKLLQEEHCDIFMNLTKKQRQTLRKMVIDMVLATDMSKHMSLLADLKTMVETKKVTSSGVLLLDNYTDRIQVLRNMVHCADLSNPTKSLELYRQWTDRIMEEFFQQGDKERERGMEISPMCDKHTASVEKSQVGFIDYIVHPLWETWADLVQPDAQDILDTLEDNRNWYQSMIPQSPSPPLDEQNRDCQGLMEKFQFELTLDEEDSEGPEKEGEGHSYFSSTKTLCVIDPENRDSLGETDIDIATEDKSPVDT
Method: as §1
One and a half μL aliquots of PDE-Glo reaction buffer containing appropriate amounts of human recombinant PDE (hrPDE) 1B, 2A, 3A, 4B, 4D, 5A, 7A, or 10A (SignalChem, Richmond, Canada) were placed into separate wells of a 384-well plate (Thermo Scientific, USA). The investigated compounds were initially dissolved in DMSO and then a serial dilution with DMSO was performed. Each dilution was mixed with PDE-Glo reaction buffer at a ratio of 1:5 (v/v). Then, 1 μL of the solution containing a PDE inhibitor and 2.5 μL of the substrate solution were added to each well. cGMP was used as a substrate in the case of hrPDE2A and hrPDE5A, while cAMP for other types of hrPDEs. The samples were incubated for 10 min at 30°C. Subsequently, 2.5 μL volumes of PDE-Glo Termination Buffer and PDE-Glo Detection Solution were added to each well and after 20 min of incubation at room temperature, 10 μL of Kinase-Glo Reagent was added to each well. The luminescence of each sample was measured by a microplate reader POLARstar Omega (BMG LABTECH, Germany).

[5] = system: TNF-α release from LPS-stimulated whole rat blood; test: Inhibition of LPS-induced TNF-α release in whole rat blood; format: cell-based
Method: Stimulation of whole rat blood by LPS was performed on 96-well plates. […] Contents of each well (200 μL) consisted of heparinized rat blood containing 10 U heparin mL^−1 diluted with RPMI-1640 medium at a ratio of 1:1 (v/v). All compounds were dissolved in DMSO and added to blood (the final DMSO concentration in blood was 0.5%) 15 min prior to the addition of LPS dissolved in RPMI-1640 medium to achieve the LPS concentration of 10 mg L^−1. Both, LPS and DMSO were also added to control wells at the same concentrations. Additional control samples (for testing baseline TNF-α levels in blood) consisted of DMSO (0.5%) without LPS. The incubation was performed at 37°C in a humidified atmosphere of 5% CO2 in an MCO-5 AC-PE incubator (PHCbi, Japan). After 6 h of incubation, the plates were centrifuged for 10 min using PlateFuge MicroCentrifuge (Benchmark Scientific, USA). The individual plasma samples were harvested and stored at −80°C until analysis.
TNF-α levels in LPS-stimulated rat blood in vitro and in rat plasma samples from the in vivo studies were analyzed by the Rat TNF-α Quantikine ELISA Immunoassay Kit (R&D Systems, USA) according to the manufacturer’s instructions. The assay was linear at the range of 12.5–800 pg mL^−1. Levels of TNF-α in mice serum were measured by ELISA Kits for Tumor Necrosis Factor Alpha (Cloud-Clone Corp., USA). This assay was linear at the range of 15.6–1000 pg mL^−1. Absorbance was measured at 450 nm using a POLARstar Omega multi-mode microplate reader (BMG LABTECH, Germany).

[6] = LPS 10 mg L^−1, 6 h incubation, compared to LPS-treated control
[7] = rat, plasma, other: GRMS-55 IV and IP, rolipram IP, female Lewis rats, read-out: half-life calculated as ln2·V1/Clt (elimination half-life)

IC50 [1] [µM] | fraction of the dose absorbed (F) ([2]; female Lewis rats, SC administration) [%] | volume of distribution, times lower in female Lewis rats compared to male Wistar rats ([2]; female Lewis vs male Wistar rats) [times] | half-life ([2]; rat, plasma, 80 mg kg^-1, female Lewis rats, SC administration, flip-flop pharmacokinetics, read-out: plasma terminal half-life) [min] | Vd ([2]; rat, plasma, other: IV and SC, female Lewis rats, (±)-LSF IV 40 and SC 80 mg kg^−1, read-out: VLSF, volume of distribution of (±)-LSF, Estimate (CV%)) [L/kg] | k el ([2]; rat, plasma, other: IV and SC, female Lewis rats, (±)-LSF IV and SC, read-out: kd, overall parent elimination rate constant, Estimate (CV%) (converted)) [s⁻¹] | IC50 [3] [µM] | IC50 ([4]; hrPDE4B, cAMP substrate, read-out: IC50 PDE4B, Estimate (CV%)) [µM] | hrPDE4B inhibitory activity, times weaker than rolipram [4] [times] | fraction of the dose absorbed (F) ([2]; female Lewis rats, IP administration) [%] | PDE4B inhibitory potency of GRMS-55 relative to (±)-LSF ([4]; GRMS-55 more potent than (±)-LSF in vitro) | SMILES | Reduction of TNF-α levels in LPS-stimulated whole rat blood (result in words) [5, 6] | half-life [2, 7] [min] | Inhibition of TNF-α release in LPS-stimulated whole rat blood (result in words) ([5]; levels of 50 and 250 μM, compared to the control wells) | Vd/F ([2]; female, Lewis, rat, plasma, ip, 10 mg/kg, read-out: V(ROL)/F, volume of distribution divided by fraction absorbed, Estimate (CV%)) [L/kg] | Reduction of TNF-α levels in LPS-stimulated whole rat blood (result in words) ([5]; concentration of 50 μM, compared to the control group)
> 100 | 95 | 3.3 | 23 | 0.37 | 0.00353 | 91.6 | 50.8 | 45 | – | – | CC(O)CCCCn1c(=O)c2c(ncn2C)n(C)c1=O (racemic) [(±)-LSF, lisofylline] | significantly and with similar potency reduced | – | – | – | –
23.3 | – | – | – | – | – | > 100 | – | 24 | 23 | ~ 2 times and ~ 2.0 times | Cn1c(=O)c2c(nc(NCCc3ccccc3)n2CCCC(=O)NN=Cc2ccccc2O)n(C)c1=O [GRMS-55, 4-(1,3-Dimethyl-2,6-dioxo-8-(phenethylamino)-2,3,6,7-tetrahydro-1H-purin-7-yl)-N′-(2-hydroxybenzylidene)butanehydrazide] | did not exhibit activity | 21 | failed to inhibit TNF-α release | – | –
– | – | – | – | – | – | – | – | – | – | – | COc1ccc(C2CNC(=O)C2)cc1OC1CCCC1 (stereo not drawn) [Rolipram, rolipram] | – | 30 | – | 1.02 | completely reduced
